“And” between values parts separate entries of the source, which are not always exact repeats. Equal values may be shown once.

We go through one molecule from patent US20090246134A1, “COMPOSITIONS AND METHODS FOR MODULATING GATED ION CHANNELS” (PainCeptor Pharma Corporation, priority 2007, published 2009).

Data set [1] can be described thus: Liver microsomes stability and metabolite identification (LC-MS), rat. In kind it is in vitro ADME. The source says: The objective of this study is to analyze in vitro samples of Compound A and Compound B from rat and human microsomes using liquid chromatography quadrupole ion trap mass spectrometry and identify the nature of the metabolite(s) for each species.
The HPLC system consisted of a Thermo Surveror autosampler and a Thermo Surveyor MS pump (San Jose, Calif., USA). The LC-MS/MS system used was a Thermo LCQ Advantage (San Jose, Calif., USA). Data was acquired on a Dell Optiplex desktop computer (Round Rock, Tex., USA) equipped with operation system Windows XP professional. Data acquisition and analysis were performed using XCalibur 1.4 (San Jose, Calif., USA).
After the incubation period of the liver microsomes, the reaction was stopped with the addition of acetonitrile and frozen for transport. Before analysis, the samples were thawed at room temperature. They were vortexed vigorously and centrifuged at approximately 12000 g for 10 minutes. The supernatant was transferred into an injection vial for analysis.
A gradient mobile phase was used with a Thermo Phenyl 100×2 mm column with particle size of 5 μm. The initial mobile phase condition consisted of methanol and 0.1% formic acid solution at a ratio of 20:80, respectively. From 0 to 2 minutes, the ratio was maintained at 20:80. From 2 to 10 minutes, a linear gradient was applied and a ratio of 90:10 was maintained from 10 to 12 minutes. […] The flow rate was fixed at 0.25 mL/min.
The mass spectrometer was interfaced with the HPLC system using a pneumatic assisted electrospray ion source. The sheath gas was set to 15 units and the ESI electrode was set to 4000 V (positive mode). The capillary temperature was set at 300° C., and the capillary voltage was set to 13 V. The mass spectrometer was operating in full scan MS mode using one segment analysis (200-800).
(Microsomes from liver hold many membrane-bound enzymes, among them those of drug oxidation.)

A short description of data set [2]: Plasma composition analysis, parent compound and metabolites by MS. Type of data set: in vivo. The following applies: rat plasma. As for the experimental part: Rats receive compounds (5 mg/kg) dissolved in HPβCD 15%, dextrose 2.5%, pH 5 by intravenous (i.v). route or (25-30 mg/kg) dissolved in HPβCD 15%, dextrose 2.5%, […] (s.c.) route or (50-150 mg/kg) dissolved in HPβCD 15%, dextrose 2.5%, pH 5 by oral (p.o.) route. After the treatment, approximately 100 μl of blood sample is collected and the accurate bleeding time is recorded for each sample. Each blood sample is collected into Microvette blood collection tube containing anticoagulant lithium heparin. Following collection, the samples are centrifuged at […] for 15 minutes (to avoid haemolysis) and the plasma obtained from each is recovered and stored frozen (at −80° C.) pending analysis. Frozen samples are shipped on dry ice to quantify drug concentration within plasma after extraction procedure as previously described in Example 13.

A further data set has as its target T1, ASIC1a (Homo sapiens, UniProt P78348).
T1 sequence (P78348 1-528): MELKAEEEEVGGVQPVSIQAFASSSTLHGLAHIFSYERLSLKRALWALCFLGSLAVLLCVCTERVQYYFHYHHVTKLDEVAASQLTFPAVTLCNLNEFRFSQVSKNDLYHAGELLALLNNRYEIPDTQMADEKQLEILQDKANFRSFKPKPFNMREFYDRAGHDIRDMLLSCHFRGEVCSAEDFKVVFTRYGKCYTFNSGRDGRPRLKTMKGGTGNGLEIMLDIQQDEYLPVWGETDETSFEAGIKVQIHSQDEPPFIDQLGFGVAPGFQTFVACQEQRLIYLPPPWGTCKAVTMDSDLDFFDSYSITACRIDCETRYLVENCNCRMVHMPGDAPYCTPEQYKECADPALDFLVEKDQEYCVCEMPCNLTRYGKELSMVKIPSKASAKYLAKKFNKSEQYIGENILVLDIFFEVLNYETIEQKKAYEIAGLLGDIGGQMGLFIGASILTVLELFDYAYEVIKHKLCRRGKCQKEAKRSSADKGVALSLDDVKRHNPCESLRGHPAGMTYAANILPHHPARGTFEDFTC
Briefly: Calcium-imaging (calcium mobilization, FLIPR) assay in ASIC1a expressing HEK293 cells. In kind it is cell-based. Also noted: host or cells: HEK293. The following applies: n=3-7, compounds not radiolabelled. The procedure:
ASIC1a expressing HEK293 cells are grown in culture medium (DMEM with 10% FBS), in polystyrene culture flasks ([…]) at 37° C. in a humidified atmosphere of 5% CO2. Confluency of cells should be 80-90% on day of plating. Cells are rinsed with 10 ml of PBS and re-suspended by addition of culture medium and trituration with a 25 ml pipette.
The cells are seeded at a density of approximately 1×10^6 cells/ml (100 μl/well) in black-walled, clear bottom, 96-well plates pre-treated with 10 mg/l poly-D-lysin (75 μl/well for ≧30 min). Plated cells were allowed to proliferate for 24 h before loading with dye.
Fluo-4/AM (1 mg, Molecular Probes) is dissolved in 912 μl DMSO. The Fluo-4/AM stock solution (1 mM) is diluted with culture medium to a final concentration of 2 μM (loading solution).
The culture medium is aspirated from the wells, and 50 μl of the Fluo-4/AM loading solution is added to each well. The cells are incubated at 37° C. for 30 min.
After the loading period, the loading solution is aspirated and the cells are washed twice with 100 μl modified Assay Buffer (145 mM NaCl, 5 mM KCl, 5 mM CaCl2, 1 mM MgCl2, 10 mM HEPES, pH 7.4) to remove extracellular dye. Following the second wash, 100 μl modified Assay Buffer is added to each well and the fluorescence is measured in FLIPR™ or FlexStation™ (Molecular Devices, USA), or any other suitable equipment known to the skilled in the art.
Temperature: Room temperature (20-22° C.)
First addition: 50 μl test solution at a rate of 30 μl/sec and a starting height of […]
Second addition: 50 μl MES solution (20 mM, 5 mM final concentration) at a rate of 35 μl/sec and a starting height of 150 μl.
Reading intervals: pre-incubation—10 sec×7 and 3 sec×3 antagonist phase—3 sec×17 and 10 sec×12
Addition plates (compound test plate and MES plate) are placed on the right and left positions in the FLIPR tray, respectively. Cell plates are placed in the middle position and the ASIC1a program is effectuated. FLIPR will then take the appropriate measurements in accordance with the interval settings above. Fluorescence obtained after stimulation is corrected for the mean basal fluorescence (in modified Assay Buffer).
The MES-induced peak calcium response, in the presence of test substance, is expressed relatively to the MES response alone. Test substances that block the MES-induced calcium response are re-tested in triplicates. Confirmed hits are picked for further characterization by performing full dose-response curves to determine potency of each hit compound as represented by the IC50 values (i.e., the concentration of the test substance which inhibits 50% of the MES-induced calcium response).
It is noted that the compounds below are not radiolabelled.
Background: Calcium assays in cells follow changes in intracellular calcium, usually with a dye or a luminescent sensor.

The mark [3] stands for this setting: rat microsomes 60 min (samples 5-7).

With `COc1ccc(F)cc1-c1cc2c(c3c1CCN(C)C3)NC(=O)C2=NO` [Compound A, 5-(5-fluoro-2-methoxyphenyl)-6,7,8,9-tetrahydro-3-(hydroxyimino)-8-methyl-1H-pyrrolo[3,2-h]isoquinoline-2(3H)-one], the Total % metabolites in data set [1] (% peak area relative to parent at T0, 60 min incubation, rat microsomes) was 32.76%. Besides, in data set [1] (setting [3]), the “Compound A metabolite identification: m/z 342” value is “Yes”, the “Compound A metabolite identification: m/z 356 (parent)” value was “Yes”, the “Compound A metabolite identification: m/z 372” value is recorded as “Yes” and the “Compound A metabolite identification: m/z 412” value is recorded as “trace”. The “Calc. Conc.” value in data set [1] (rat microsomes, time 0 min) was 3.61 µM and 3.80 µM. Besides, the “Calc. Conc.” value in data set [1] (rat microsomes, time 60 min) was 2.49 µM and 2.67 µM and 2.40 µM. Besides, in data set [2] (IV 5 mg/kg), the “Plasma Component: N-desMe or desEt” value is listed as “Small” and the “Plasma Component: O-desMe” value is “Trace”. In addition, in data set [2] (PO 50 mg/kg), the “Plasma Component: N-desMe or desEt” value is listed as “Small” and the “Plasma Component: O-desMe” value is listed as “Trace”. In addition, the IC50 (as a rule, the point on the concentration scale where inhibition reaches its midpoint) at ASIC1a was determined as 700 nM.
